According to ChEMBL document CHEMBL4665642, “Anticancer profile of newly synthesized BRAF inhibitors possess 5-(pyrimidin-4-yl)imidazo[2,1-b]thiazole scaffold” (Bioorg Med Chem, 2019):

How the values were obtained:
Assay type in all cases: functional
Conditions in all cases: read-out: Activity
NCI/ADR-RES = assay: Cytotoxicity against human NCI/ADR-RES cells assessed as cell viability at 10 uM incubated for 48 hrs by sulforhodamine B assay relative to control
SF-268 = assay: Cytotoxicity against human SF-268 cells assessed as cell viability at 10 uM incubated for 48 hrs by sulforhodamine B assay relative to control
HL-60(TB) = assay: Cytotoxicity against human HL-60(TB) cells assessed as cell viability at 10 uM incubated for 48 hrs by sulforhodamine B assay relative to control
OVCAR-3 = assay: Cytotoxicity against human OVCAR-3 cells assessed as cell viability at 10 uM incubated for 48 hrs by sulforhodamine B assay relative to control
M14 = assay: Cytotoxicity against human M14 cells assessed as cell viability at 10 uM incubated for 48 hrs by sulforhodamine B assay relative to control
A549 = assay: Cytotoxicity against human A549 cells assessed as cell viability at 10 uM incubated for 48 hrs by sulforhodamine B assay relative to control
SW-620 = assay: Cytotoxicity against human SW-620 cells assessed as cell viability at 10 uM incubated for 48 hrs by sulforhodamine B assay relative to control
DU-145 = assay: Cytotoxicity against human DU-145 cells assessed as cell viability at 10 uM incubated for 48 hrs by sulforhodamine B assay relative to control
PC-3 = assay: Cytotoxicity against human PC-3 cells assessed as cell viability at 10 uM incubated for 48 hrs by sulforhodamine B assay relative to control
HCT-15 = assay: Cytotoxicity against human HCT-15 cells assessed as cell viability at 10 uM incubated for 48 hrs by sulforhodamine B assay relative to control
MDA-MB-231 = assay: Cytotoxicity against human MDA-MB-231 cells assessed as cell viability at 10 uM incubated for 48 hrs by sulforhodamine B assay relative to control
NCI-H226 = assay: Cytotoxicity against human NCI-H226 cells assessed as cell viability at 10 uM incubated for 48 hrs by sulforhodamine B assay relative to control
SNB-75 = assay: Cytotoxicity against human SNB-75 cells assessed as cell viability at 10 uM incubated for 48 hrs by sulforhodamine B assay relative to control
786-0 = assay: Cytotoxicity against human 786-0 cells assessed as cell viability at 10 uM incubated for 48 hrs by sulforhodamine B assay relative to control
TK-10 = assay: Cytotoxicity against human TK-10 cells assessed as cell viability at 10 uM incubated for 48 hrs by sulforhodamine B assay relative to control
T47D = assay: Cytotoxicity against human T47D cells assessed as cell viability at 10 uM incubated for 48 hrs by sulforhodamine B assay relative to control
UO-31 = assay: Cytotoxicity against human UO-31 cells assessed as cell viability at 10 uM incubated for 48 hrs by sulforhodamine B assay relative to control
SK-MEL-28 = assay: Cytotoxicity against human SK-MEL-28 cells assessed as cell viability at 10 uM incubated for 48 hrs by sulforhodamine B assay relative to control
OVCAR-4 = assay: Cytotoxicity against human OVCAR-4 cells assessed as cell viability at 10 uM incubated for 48 hrs by sulforhodamine B assay relative to control
K562 = assay: Cytotoxicity against human K562 cells assessed as cell viability at 10 uM incubated for 48 hrs by sulforhodamine B assay relative to control
Hs-578T = assay: Cytotoxicity against human HS-578T cells assessed as cell viability at 10 uM incubated for 48 hrs by sulforhodamine B assay relative to control
Malme-3M = assay: Cytotoxicity against human Malme-3M cells assessed as cell viability at 10 uM incubated for 48 hrs by sulforhodamine B assay relative to control
SF-539 = assay: Cytotoxicity against human SF-539 cells assessed as cell viability at 10 uM incubated for 48 hrs by sulforhodamine B assay relative to control
OVCAR-5 = assay: Cytotoxicity against human OVCAR-5 cells assessed as cell viability at 10 uM incubated for 48 hrs by sulforhodamine B assay relative to control
BT-549 = assay: Cytotoxicity against human BT-549 cells assessed as cell viability at 10 uM incubated for 48 hrs by sulforhodamine B assay relative to control
MOLT-4 = assay: Cytotoxicity against human MOLT-4 cells assessed as cell viability at 10 uM incubated for 48 hrs by sulforhodamine B assay relative to control
SN12C = assay: Cytotoxicity against human SN12C cells assessed as cell viability at 10 uM incubated for 48 hrs by sulforhodamine B assay relative to control
HCT-29 = assay: Cytotoxicity against human […] cells assessed as cell viability at 10 uM incubated for 48 hrs by sulforhodamine B assay relative to control
RXF 393 = assay: Cytotoxicity against human RXF 393 cells assessed as cell viability at 10 uM incubated for 48 hrs by sulforhodamine B assay relative to control
SK-MEL-5 = assay: Cytotoxicity against human SK-MEL-5 cells assessed as cell viability at 10 uM incubated for 48 hrs by sulforhodamine B assay relative to control
UACC-62 = assay: Cytotoxicity against human UACC-62 cells assessed as cell viability at 10 uM incubated for 48 hrs by sulforhodamine B assay relative to control
HOP-92 = assay: Cytotoxicity against human HOP-92 cells assessed as cell viability at 10 uM incubated for 48 hrs by sulforhodamine B assay relative to control
KM12 = assay: Cytotoxicity against human KM12 cells assessed as cell viability at 10 uM incubated for 48 hrs by sulforhodamine B assay relative to control
SNB-19 = assay: Cytotoxicity against human SNB-19 cells assessed as cell viability at 10 uM incubated for 48 hrs by sulforhodamine B assay relative to control
MCF7 = assay: Cytotoxicity against human MCF7 cells assessed as cell viability at 10 uM incubated for 48 hrs by sulforhodamine B assay relative to control
RPMI-8226 = assay: Cytotoxicity against human RPMI-8226 cells assessed as cell viability at 10 uM incubated for 48 hrs by sulforhodamine B assay relative to control
COLO 205 = assay: Cytotoxicity against human COLO 205 cells assessed as cell viability at 10 uM incubated for 48 hrs by sulforhodamine B assay relative to control
NCI-H460 = assay: Cytotoxicity against human NCI-H460 cells assessed as cell viability at 10 uM incubated for 48 hrs by sulforhodamine B assay relative to control
HOP-62 = assay: Cytotoxicity against human HOP-62 cells assessed as cell viability at 10 uM incubated for 48 hrs by sulforhodamine B assay relative to control
SK-OV-3 = assay: Cytotoxicity against human SK-OV-3 cells assessed as cell viability at 10 uM incubated for 48 hrs by sulforhodamine B assay relative to control
IGROV-1 = assay: Cytotoxicity against human IGROV-1 cells assessed as cell viability at 10 uM incubated for 48 hrs by sulforhodamine B assay relative to control

O=C(NCCCNc1nccc(-c2c(-c3cccc(F)c3)nc3sccn23)n1)c1ccc(C(F)(F)F)cc1
viability at 10 µM (NCI/ADR-RES): 74.7%
viability at 10 µM (SF-268): 67.8%
viability at 10 µM (HL-60(TB)): 115%
viability at 10 µM (OVCAR-3): 82.3%
viability at 10 µM (M14): 82.8%
viability at 10 µM (A549): 69%
viability at 10 µM (SW-620): 111%
viability at 10 µM (DU-145): 81.3%
viability at 10 µM (PC-3): 70.8%
viability at 10 µM (HCT-15): 54.2%
viability at 10 µM (MDA-MB-231): 89.1%
viability at 10 µM (NCI-H226): 78.8%
viability at 10 µM (SNB-75): 82.6%
viability at 10 µM (786-0): 58.9%
viability at 10 µM (TK-10): 74%
viability at 10 µM (T47D): 62.6%
viability at 10 µM (UO-31): 35.3%
viability at 10 µM (SK-MEL-28): 96.2%
viability at 10 µM (OVCAR-4): 74.7%
viability at 10 µM (K562): 66.7%
viability at 10 µM (Hs-578T): 75.7%
viability at 10 µM (Malme-3M): 121%
viability at 10 µM (SF-539): 104%
viability at 10 µM (OVCAR-5): 126%
viability at 10 µM (BT-549): 83.4%
viability at 10 µM (MOLT-4): 44.8%
viability at 10 µM (SN12C): 80.1%
viability at 10 µM (HCT-29): 53.8%
viability at 10 µM (RXF 393): 74.6%
viability at 10 µM (SK-MEL-5): 75.3%
viability at 10 µM (UACC-62): 69.6%
viability at 10 µM (HOP-92): 93.6%
viability at 10 µM (KM12): 85.4%
viability at 10 µM (SNB-19): 87.6%
viability at 10 µM (MCF7): 69.7%
viability at 10 µM (RPMI-8226): 96.8%
viability at 10 µM (COLO 205): 74.8%
viability at 10 µM (NCI-H460): 92.1%
viability at 10 µM (HOP-62): 124%
viability at 10 µM (SK-OV-3): 69%
viability at 10 µM (IGROV-1): 41.8%

O=C(NCCNc1nccc(-c2c(-c3cccc(F)c3)nc3sccn23)n1)c1c(F)cccc1F
viability at 10 µM (NCI/ADR-RES): 56.9%
viability at 10 µM (SF-268): 54.4%
viability at 10 µM (HL-60(TB)): 86.4%
viability at 10 µM (OVCAR-3): 56.8%
viability at 10 µM (M14): 29.3%
viability at 10 µM (A549): 29.1%
viability at 10 µM (SW-620): 47.3%
viability at 10 µM (DU-145): 50.1%
viability at 10 µM (PC-3): 57%
viability at 10 µM (HCT-15): 31.1%
viability at 10 µM (MDA-MB-231): 81.2%
viability at 10 µM (NCI-H226): 40.7%
viability at 10 µM (SNB-75): 59.5%
viability at 10 µM (786-0): 44.2%
viability at 10 µM (TK-10): 66.6%
viability at 10 µM (T47D): 26.7%
viability at 10 µM (UO-31): 20.8%
viability at 10 µM (SK-MEL-28): 51.1%
viability at 10 µM (OVCAR-4): 60.9%
viability at 10 µM (K562): 40.2%
viability at 10 µM (Hs-578T): 53.3%
viability at 10 µM (Malme-3M): 31.6%
viability at 10 µM (SF-539): 65.9%
viability at 10 µM (OVCAR-5): 72.7%
viability at 10 µM (BT-549): 56%
viability at 10 µM (MOLT-4): 35.9%
viability at 10 µM (SN12C): 45%
viability at 10 µM (HCT-29): 20.4%
viability at 10 µM (RXF 393): 57.1%
viability at 10 µM (SK-MEL-5): 17.1%
viability at 10 µM (UACC-62): 10.3%
viability at 10 µM (HOP-92): 66.2%
viability at 10 µM (KM12): 47.7%
viability at 10 µM (SNB-19): 55.2%
viability at 10 µM (MCF7): 17.5%
viability at 10 µM (RPMI-8226): 41%
viability at 10 µM (COLO 205): 19.2%
viability at 10 µM (NCI-H460): 24.8%
viability at 10 µM (HOP-62): 63.8%
viability at 10 µM (SK-OV-3): 64.1%
viability at 10 µM (IGROV-1): 12.1%
